From patent publication US20260258039A1, “AROMATIC COMPOUND, METHOD FOR PREPARING SAME, AND USE THEREOF IN PREPARATION OF ESTROGEN RECEPTOR DEGRADER” (Hinova Pharmaceuticals Inc., priority 2022, published 2026)
Like-named read-outs stand apart in the source and are kept apart here.

Legend:
Type in all cases: cell-based
ER [1] = target: T1, ER (Homo sapiens, UniProt P03372); assay: Degradation activities on ER (Western blotting) in T47D breast cancer cells; conditions: 24 h, Western blot
T1 construct: T47D breast cancer cells were subcultured in cell culture medium; endogenous in cells; host or cells: T47D breast cancer cells
T1 sequence (P03372 1-595): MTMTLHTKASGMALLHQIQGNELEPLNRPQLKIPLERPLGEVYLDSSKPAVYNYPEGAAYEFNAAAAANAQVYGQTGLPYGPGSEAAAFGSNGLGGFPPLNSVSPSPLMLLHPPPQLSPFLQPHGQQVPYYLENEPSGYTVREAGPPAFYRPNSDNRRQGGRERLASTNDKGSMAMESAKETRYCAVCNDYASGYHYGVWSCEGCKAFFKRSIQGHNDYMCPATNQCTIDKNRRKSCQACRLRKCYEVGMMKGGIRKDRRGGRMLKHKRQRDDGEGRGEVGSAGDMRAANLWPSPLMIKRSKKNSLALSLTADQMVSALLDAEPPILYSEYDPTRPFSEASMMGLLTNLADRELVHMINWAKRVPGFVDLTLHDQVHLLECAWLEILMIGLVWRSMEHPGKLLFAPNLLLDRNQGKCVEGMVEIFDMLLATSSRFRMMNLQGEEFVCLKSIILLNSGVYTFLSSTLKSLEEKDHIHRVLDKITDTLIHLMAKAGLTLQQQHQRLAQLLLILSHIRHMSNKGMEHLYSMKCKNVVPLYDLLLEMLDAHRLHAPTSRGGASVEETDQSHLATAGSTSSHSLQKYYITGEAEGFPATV
Experimental: T47D breast cancer cells were subcultured in cell culture medium, and the cells in good growth condition were seeded into 6-well plate at 2 mL/well, with 2.5×10^5 cells per well. The cells were incubated overnight in a 37° C. incubator under 5% CO2. The drug was prepared into 10 mM stock solution with dimethyl sulfoxide (DMSO). Prior to use, the stock solution was diluted with DMSO in a ratio of 1:3. […] of the diluted compound was added to the cell culture wells (to ensure a DMSO concentration of 0.1% in the culture system), and each concentration was repeated twice. The plate were gently shaken to mix. Additionally, the negative control wells (containing equal amount of DMSO) and the positive control wells were set up. After 24 hours of culture, the cells were lysed with RIPA cell lysis buffer to extract proteins, and the protein concentration was measured using a BCA kit. The protein loading buffer (5×) was added, and the plate was heated at 100° C. for 5 min. Then, the sample was stored at −20° C. […] of protein collected from each well was loaded onto a polyacrylamide gel for electrophoresis. The protein is transferred from the polyacrylamide gel to a PVDF membrane, blocked with 5% skim milk at room temperature for 1 h, and incubated overnight at 4° C. with primary antibodies Anti-ERα rabbit mAb (CST, Cat #: 8644S) and Anti-GAPDH rabbit mAb (CST, Cat #: 2118L). The membrane was washed three times with TBST solution, with 10 min for each time. The secondary antibody (horseradish peroxidase-labeled goat anti-rabbit IgG) was incubated at room temperature for 2 h, and then the membrane was washed three times with TBST solution, with 10 min for each time. Finally, ECL chromogenic solution was added for color development, and an automatic chemiluminescence instrument was used to take pictures. Images were collected and analyzed.
The degradation activities of the compounds according to the present invention towards ER, as tested by western blotting, are presented in Table 2

ER [2] = target: T1, ER; assay: Degradation activities on ER (ELISA) in T47D breast cancer cells; conditions: for DC50: concentration required to degrade 50% of the target protein
How it was run: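 Cellular ER degradation ELISA: compound dosed 24 h on T47D cells (2.5×10^4/well, pre-grown 3 days) at six final levels from 100 nM downward. Remaining ER was detected by HRP-TMB absorbance at 450 nm. Dose-response fitting gave DC50 and Dmax, the maximal percentage degraded.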

[3] = system: MCF-7 breast cancer cells; assay: Inhibition of proliferation of MCF-7 breast cancer cells (agarose culture, CellTiter-Glo 3D); conditions: Homo sapiens, MCF7, 360 h, MCF-7 cells, 15 days of cultivation; read-out: IC50
Experimental: After 1.6% agarose and 0.7% agarose were sterilized at high temperature, they were cooled to around 50° C., and placed in a 42° C. water bath for later use. MCF-7 breast cancer cells were subcultured in complete cell culture medium, and cells in good growth condition were digested and counted for future use. 50 µL of 1.6% agarose mixed with 2× culture medium at a ratio of 1:1 was spread into the bottom of 96-well plate, and allowed to cool and solidify. 0.7% agarose was mixed with diluted cell suspension in a ratio of 1:1, and then 50 µL of the mixture of gel and cells was added to each well, with 2000 cells for each well; the mixture was allowed to cool and solidify at room temperature. 50 μL of culture medium was added to the plate containing cells, and the plate was placed in a 37° C., 5% CO2 incubator and cultured for 24 h. The drug was prepared into 10 mM stock solution with dimethyl sulfoxide (DMSO). The stock solution was diluted in a ratio of 1:3, to obtain 9 concentration gradients. Then, each concentration of compound solution was further diluted with culture medium in 1:250 (to ensure a DMSO concentration of 0.1% in the culture system). Two replicate wells was set for each concentration. 50 μL of the diluted compound solution was added to the cell culture wells (with final concentrations of 10 μM, 3.3 μM, 1.1 μM, 0.37 μM . . . ). The plate was gently shaken for mixing. Additionally, 3 negative control wells only containing cells and 3 blank control wells only containing culture medium were set up (each of the 6 wells was added with 50 μL of DMSO diluted with culture medium in a ration of 1:250). After 15 days of cultivation, the cell plates and CellTiter-Glo 3D Cell Viability were taken out and equilibrated to room temperature in advance. 80 μL of culture medium were aspirated and discarded from the cell plate, and 120 µL of CellTiter-Glo 3D Cell Viability solution was added to each well. The plates were centrifuged at 1200 rpm/min for 5 min, and then placed in the dark and kept for 25 min. The […] were measured using a multi-function microplate reader. The data were analyzed using the Dose-response-inhibition equation in GraphPad Prism8 software, and the IC50 values were obtained, as shown in Table 3.

[4] = T47D cells, 24 h, ELISA, maximum percentage of target protein degraded, read-out: Dmax

| SMILES | Percentage reduction of ER (ER [1]; compound concentration 1 nM) [%] | Dmax (ER [2]; T47D) [%] | DC50 (ER [2]; T47D cells, 24 h, ELISA) [nM] | Percentage reduction of ER (ER [1]; compound concentration 10 nM) [%] | IC50 [3] [nM] | Percentage reduction of ER (ER [1]; compound concentration 100 nM) [%] | Dmax (ER [2]; [4]) [%] |
| --- | --- | --- | --- | --- | --- | --- | --- |
| O=C1CCC(N2Cc3cc(N4CCC5(CC4)CN(CC4CCN(c6ccc([C@@H]7c8ccc(O)cc8CC[C@@H]7c7ccccc7)cc6)CC4)C5)ccc3C2=O)C(=O)N1 (stereo partly drawn) [Example 27, 3-(5-(2-((1-(4-((1R,2S)-6-hydroxyl-2-phenyl-1,2,3,4-tetrahydronaphthalen-1-yl)phenyl)piperidin-4-yl)methyl)-2,7-diazaspiro[3.5]nonan-7-yl)-1-oxoisoinodolin-2-yl)piperidin-2,6-dione] | 78 | < 50 | > 100 | – | – | – | – |
| O=C1CCC(N2Cc3cc(N4CC5(CCN(CC6CCN(c7ccc([C@@H]8c9ccc(O)cc9CC[C@@H]8c8ccccc8)cc7)CC6)CC5)C4)ccc3C2=O)C(=O)N1 (stereo partly shown) [Example 4] | – | – | – | 74 | 11 to 50 | – | – |
| O=C1CCC(N2C(=O)c3ccc(N4CC5(CN(CC6CCN(c7ccc([C@@H]8c9ccc(O)cc9CC[C@@H]8c8ccccc8)cc7)CC6)C5)C4)cc3C2=O)C(=O)N1 (stereo partly drawn) [Example 54, 2-(2,6-dioxopiperidin-3-yl)-5-(6-((1-(4-((1R,2S)-6-hydroxyl-2-phenyl-1,2,3,4-tetrahydronaphthalen-1-yl)phenyl)piperidin-4-yl)methyl)-2,6-diazaspiro[3.3]heptan-2-yl)isoinodolin-1,3-dione] | – | – | > 100 | – | – | 57 | < 50 |
| O=C1CCC(N2Cc3cc(N4CCC5(CCN(CC6CCN(c7ccc([C@@H]8c9ccc(O)cc9OC[C@@H]8c8ccccc8)cc7)CC6)C5)C4)ccc3C2=O)C(=O)N1 (stereo partly drawn) [Example 8, 3-(5-(7-((1-(4-((3S,4R)-7-hydroxyl-3-phenyltryptophane-4-yl)phenyl)piperidin-4-yl)methyl)-2,7-diazaspiro[4.4]nonane-2-yl)-1-oxoisoinodolin-2-yl)piperidin-2,6-dione] | 47 | – | – | – | 11 to 50 | – | – |
| O=C1CCC(N2Cc3cc(N4CCC(N5CC6(CCN(c7ccc([C@@H]8c9ccc(O)cc9CC[C@@H]8c8ccccc8)cc7)CC6)C5)CC4)ccc3C2=O)C(=O)N1 (stereo partly shown) [Example 12] | – | > 75 | 10 to 50 | 84 | – | – | – |
| O=C1CCC(N2C(=O)c3ccc(N4CC(N5CCN(c6ccc([C@@H]7c8ccc(O)cc8CC[C@@H]7c7ccccc7)cc6)CC5)C4)cc3C2=O)C(=O)N1 (stereo partly drawn) [Example 55, 2-(2,6-dioxopiperidin-3-yl)-5-(3-(4-(4-((1R,2S)-6-hydroxyl-2-phenyl-1,2,3,4-tetrahydronaphthalen-1-yl)phenyl)piperazine-1-yl)azetidin-1-yl)isoinodolin-1,3-dione] | – | – | > 100 | – | – | 25 | < 50 |
| O=C1CCC(N2Cc3cc(N4CC5(CCN(CC6CCN(c7ccc([C@@H]8c9ccc(O)cc9CC[C@@H]8c8ccccc8)cc7)CC6)C5)C4)ccc3C2=O)C(=O)N1 (stereo partly drawn) [Example 31, 3-(5-(6-((1-(4-((1,2-cis)-6-hydroxyl-2-phenyl-1,2,3,4-tetrahydronaphthalen-1-yl)phenyl)piperidin-4-yl)methyl)-2,6-diazaspiro[3.4]octane-2-yl)-1-oxoisoinodolin-2-yl)piperidin-2,6-one] | – | – | – | – | 11 to 50 | 50 | – |
| O=C1CCC(N2Cc3cc(N4CC5(CCN(CC6CCN(c7ccc([C@H]8c9ccc(O)cc9OC[C@H]8c8ccccc8F)cc7)CC6)CC5)C4)ccc3C2=O)C(=O)N1 (stereo partly drawn) [Example 34, 3-(5-(7-((1-(4-((3R,4S)-3-(2-fluorophenyl)-7-hydroxychroman-4-yl)phenyl)piperidin-4-yl)methyl)-2,7-diazaspiro[3.5]nonane-2-yl)-1-oxoisoindol-2-yl)piperidin-2,6-dione] | – | – | > 100 | – | – | 51 | < 50 |
| O=C1CCC(N2C(=O)c3ccc(N4CC5CN(CC6CCN(c7ccc([C@@H]8c9ccc(O)cc9CC[C@@H]8c8ccccc8)cc7)CC6)CC5C4)cc3C2=O)C(=O)N1 (stereo partly drawn) [Example 25, 2-(2,6-dioxopiperidin-3-yl)-5-(5-((1-(4-((1R,2S)-6-hydroxyl-2-phenyl-1,2,3,4-tetrahydronaphthalen-1-yl)phenyl)piperidin-4-yl)methyl)hexahydropyrrolo[3,4-c]pyrrole-2(1H)-yl)isoinodolin-1,3-dione] | – | – | > 100 | 47 | – | – | < 50 |
| O=C1CCC(N2Cc3cc(N4CCC5(CCN(CC6CCN(c7ccc([C@@H]8c9ccc(O)cc9CC[C@@H]8c8ccccc8)cc7)CC6)C5)C4)ccc3C2=O)C(=O)N1 (stereo partly drawn) [Example 2, 3-(5-(7-((1-(4-((1R,2S)-6-hydroxyl-2-phenyl-1,2,3,4-tetrahydronaphthalen-1-yl)phenyl)piperidin-4-yl)methyl)-2,7-diazaspiro[4.4]nonane-2-yl)-1-oxoisoinodolin-2-yl)piperidin-2,6-dione] | 53 | – | > 100 | – | – | – | < 50 |
| O=C1CCC(N2C(=O)c3ccc(N4CCC5(CCN(CC6CCN(c7ccc([C@@H]8c9ccc(O)cc9CC[C@@H]8c8ccccc8)cc7)CC6)C5)C4)cc3C2=O)C(=O)N1 (stereo partly drawn) [Example 53, 2-(2,6-dioxopiperidin-3-yl)-5-(7-((1-(4-((1R,2S)-6-hydroxyl-2-phenyl-1,2,3,4-tetrahydronaphthalen-1-yl)phenyl)piperidin-4-yl)methyl)-2,7-diazaspiro[4.4]nonane-2-yl)isoinodolin-1,3-dione] | 39 | – | > 100 | – | – | – | < 50 |
| O=C1CCC(N2Cc3cc(N4CC(N5CCN(c6ccc([C@@H]7c8ccc(O)cc8CC[C@@H]7c7ccccc7)cc6)CC5)C4)ccc3C2=O)C(=O)N1 (stereo partly drawn) [Example 59, 3-(5-(3-(4-(4-((1R,2S)-6-hydroxyl-2-phenyl-1,2,3,4-tetrahydronaphthalen-1-yl)phenyl)piperazine-1-yl)azetidin-1-yl)-1-oxoisoindol-2-yl)piperidin-2,6-dione] | – | – | – | 54 | – | – | – |
| O=C1CCC(N2C(=O)c3ccc(N4CCC(CN5CCC6(CC5)CN(c5ccc([C@@H]7c8ccc(O)cc8CC[C@@H]7c7ccccc7)cc5)C6)CC4)cc3C2=O)C(=O)N1 (stereo partly shown) [Example 1] | – | – | < 10 | 71 | – | – | 50 to 75 |
